The source of these data is patent US12264173B2 (GILEAD SCIENCES, INC., priority 2020, dated 2025).

Read-outs that look alike come from different tables or passages of the source. Some results are limits rather than exact numbers.

What all share (type): cell-based
Assay [1] deals with RSV strain A2. The assay can be described thus: microbe, parasite or virus in culture. To be noted: read-out: RSV HEp-2 EC50. The protocol:
Antiviral activity against RSV is determined using an infectious cytopathic cell protection assay in HEp-2 cells. In this assay, compounds inhibiting viral infection and/or replication produce a cytoprotective effect against the virus-induced cell killing that can be quantified using a cell viability reagent. The techniques used here are novel adaptations of methods described in published literature (Chapman et al., Antimicrob Agents Chemother. 2007, 51(9):3346-53.).
HEp-2 cells are obtained from ATCC (Manassas, VI) and maintained in MEM media supplemented with 10% fetal bovine serum and penicillin/streptomycin. Cells are passaged twice a week and kept at subconfluent stage. Commercial stock of RSV strain A2 (Advanced Biotechnologies, Columbia, MD) is titered before compound testing to determine the appropriate dilution of the virus stock that generates desirable cytopathic effect in HEp-2 cells.
For antiviral tests, HEp-2 cells are grown in large cell culture flasks to near confluency but not fully so. The compounds to be tested are prediluted in DMSO in 384-well compound dilution plates, either in an 8 or 40 sample per plate standardized dose response format. 3-fold serial dilution increments of each test compound are prepared in the plates and test samples are transferred via acoustic transfer apparatus (Echo, Labcyte) at 100 nL per well into cell culture assay 384-well plates. Each compound dilution is transferred in single or quadruplicate samples into dry assay plates, which are stored until assay is ready to go. The positive and negative controls are laid out in opposite on ends of the plate in vertical blocks (1 column).
Subsequently, an infectious mixture is prepared using an appropriate dilution of virus stock previously determined by titration with cells at a density of 50,000/mL and 20 µL/well is added to test plates w/compounds via automation (uFlow, Biotek). Each plate includes negative and positive controls (16 replicates each) to create 0% and 100% virus inhibition standards, respectively. Following the infection with RSV, testing plates are incubated for 4 days in a 37° C. cell culture incubator. After the incubation, a cell viability reagent, Cell TiterGlo (Promega, Madison, WI) is added to the assay plates, which are incubated briefly, and a luminescent readout is measured (Envision, Perkin Elmer) in all the assay plates. The RSV-induced cytopathic effect, percentage inhibition, is determined from the levels of remaining cell viability. […] Various potent anti-RSV tool compounds are used as positive controls for antiviral activity.

Assay [2] concerns RSV A2. The assay can be described thus: RSV NHBE EC50 (RSV A2 antiviral assay in NHBE cells). As to conditions: read-out: RSV NHBE EC50. The protocol:
Normal human bronchial epithelial (NHBE) cells were purchased from Lonza (Walkersville, MD, Cat #CC-2540) and cultured in Bronchial Epithelial Growth Media (BEGM) (Lonza, Walkersville, MD, Cat #CC-3170). The cells were passaged 1-2 times per week to maintain <80% confluency. The NHBE cells were discarded after 6 passages in culture.
To conduct the RSV A2 antiviral assay, NHBE cells were plated in 96-well plates at a density of 7,500 cells per well in BEGM and allowed to attach overnight at 37° C. Following attachment, 100 μL of cell culture media was removed and 3-fold serially diluted compound was added using a Hewlett-Packard D300 Digital Dispenser. The final concentration of DMSO was normalized to 0.05%. Following compound addition, the NHBE cells were infected by the addition of 100 μL of RSV A2 at a titer of 1×10^4.5 tissue culture infectious doses/mL in BEGM and then incubated at 37° C. for 4 days. The NHBE cells were then allowed to equilibrate to 25° C. and cell viability was determined by removing 100 μL of culture medium and adding 100 μL of Cell-Titer Glo viability reagent. The mixtures were incubated for 10 minutes at 25° C., and the luminescence signal was quantified on an Envision luminescence plate reader.

The test system of assay [3] is HRV16. The experiment in a line: HRV16 HeLa EC50 (cytopathic effect in H1-HeLa cells). To be noted: read-out: HRV16 HeLa EC50. On the procedure: H1-HeLa cells, cultured in complete DMEM medium containing 10% heat-inactivated FBS and 1% Penicillin/Streptomycin, were seeded in 96 well plates at 3000 cells/well one day prior to compound dosing and infection. The antiviral activity of each compound was measured in triplicate. Compounds were added directly to the cell cultures in serial 3-fold dilutions using the HP300 digital dispenser (Hewlett Packard, Palo Alto, CA) immediately prior to infection. The plates were transferred to BSL-2 containment and the appropriate dilution of virus stock, previously determined by titration and prepared in cell culture media, was added to test plates containing cells and serially diluted compounds. Each plate included 6 wells of infected untreated cells and 6 wells of uninfected cells that served as 0% and 100% virus inhibition control, respectively. Following the infection, test plates were incubated for 96 h in a tissue culture incubator set to 33° C./5% CO2. Following incubation, the H1-HeLa cells were removed from incubation and allowed to equilibrate to 25° C. Cell viability was determined by removing 100 μL of culture medium and adding 100 μL of Cell-Titer Glo viability reagent. The mixtures were incubated on a shaker for 10 minutes at 25° C., and the luminescence signal was quantified on an Envision luminescence plate reader.

Where [4] appears, read: human respiratory syncytial virus, HEp-2, 96 h, Table 3, HEp-2 cells, RSV A2, 4 days.
The mark [5] stands for this setting: human respiratory syncytial virus, NHBE, 96 h, Table 3, NHBE cells, RSV A2, 4 days.
Setting [6] is: 96 h, Table 3, H1-HeLa cells, 96 h.

The term EC50 denotes the concentration that produces a half-maximal response. `CC(C)C(=O)O[C@H]1[C@H](c2ccc3c(N)ncnn23)O[C@](C#N)(COP(=O)(N[C@@H](C)C(=O)OCCN(C(C)C)C(C)C)Oc2ccccc2)[C@H]1OC(=O)C(C)C` (stereo partly drawn) [Example 224, (2R,3S,4S,5S)-5-(4-aminopyrrolo[2,1-f][1,2,4]triazin-7-yl)-2-cyano-2-((((((S)-1-(2-(diisopropylamino)ethoxy)-1-oxopropan-2-yl)amino)(phenoxy)phosphoryl)oxy)methyl)tetrahydrofuran-3,4-diyl bis(2-methylpropanoate)]: the EC50 in assay [1] (setting [4]) was found to be 378 nM; in assay [2] (setting [5]) it was 986 nM; in assay [3] (setting [6]), 1700 nM.

`CC(C)C(=O)O[C@H]1[C@H](c2ccc3c(N)ncnn23)O[C@](C#N)(COP(=O)(N[C@@H](C)C(=O)O[C@H]2CCN(C)C2)Oc2ccccc2)[C@H]1OC(=O)C(C)C` (stereo partly drawn) [Example 228, (2R,3S,4S,5S)-5-(4-aminopyrrolo[2,1-f][1,2,4]triazin-7-yl)-2-cyano-2-((((((S)-1-(((S)-1-methylpyrrolidin-3-yl)oxy)-1-oxopropan-2-yl)amino)(phenoxy)phosphoryl)oxy)methyl)tetrahydrofuran-3,4-diyl bis(2-methylpropanoate)]: the EC50 amounted to 84 nM in assay [1] (setting [4]); 84 nM in assay [1] (human respiratory syncytial virus, HEp-2, Table 5 comparative activity, 2',3'-OH vs -OC(O)iPr); 59 nM in assay [2] (setting [5]); 59 nM in assay [2] (human respiratory syncytial virus, NHBE, Table 5 comparative activity, 2',3'-OH vs -OC(O)iPr); 956 nM in assay [3] (setting [6]); 956 nM in assay [3] (HeLa, Table 5 comparative activity, 2',3'-OH vs -OC(O)iPr).

Regarding `COCCC(=O)O[C@H]1[C@H](c2ccc3c(N)ncnn23)O[C@](C#N)(CO[P@@](=O)(N[C@@H](C)C(=O)OC)Oc2ccccc2)[C@H]1OC(=O)CCOC` [Example 231, (2R,3S,4S,5S)-5-(4-aminopyrrolo[2,1-f][1,2,4]triazin-7-yl)-2-cyano-2-((((S)-(((S)-1-methoxy-1-oxopropan-2-yl)amino)(phenoxy)phosphoryl)oxy)methyl) tetrahydrofuran-3,4-diyl bis(3-methoxypropanoate)], the EC50 in assay [1] (setting [4]) turned out to be 124 nM; in assay [2] (setting [5]) it was 75 nM; in assay [3] (setting [6]), 1730 nM.

Regarding `CC(C)C(=O)O[C@H]1[C@H](c2ccc3c(N)ncnn23)O[C@](C#N)(COP(=O)(N[C@@H](C)C(=O)O[C@@H]2CCN(C)C2)Oc2ccccc2)[C@H]1OC(=O)C(C)C` (stereo partly drawn) [Example 232, (2R,3S,4S,5S)-5-(4-aminopyrrolo[2,1-f][1,2,4]triazin-7-yl)-2-cyano-2-((((((S)-1-(((R)-1-methylpyrrolidin-3-yl)oxy)-1-oxopropan-2-yl)amino)(phenoxy)phosphoryl)oxy)methyl)tetrahydrofuran-3,4-diyl bis(2-methylpropanoate)], the values for the EC50 in assay [1] (setting [4]), in assay [2] (setting [5]) and in assay [3] (setting [6]) were 95 nM, 53 nM and 880 nM, respectively.

Take `COC(=O)[C@H](C)NP(=O)(OC[C@@]1(C#N)O[C@@H](c2ccc3c(N)ncnn23)[C@H](OC(=O)C(C)C)[C@@H]1OC(=O)C(C)C)Oc1ccc(C[C@H](N)C(=O)OC)cc1` (stereo partly drawn) [Example 235, (2R,3S,4S,5S)-2-((((4-((S)-2-amino-3-methoxy-3-oxopropyl)phenoxy)(((S)-1-methoxy-1-oxopropan-2-yl)amino)phosphoryl)oxy)methyl)-5-(4-aminopyrrolo[2,1-f][1,2,4]triazin-7-yl)-2-cyanotetrahydrofuran-3,4-diyl bis(2-methylpropanoate)]: the EC50 in assay [1] (setting [4]) was 742 nM; in assay [2] (setting [5]), 113 nM; in assay [3] (setting [6]), 2260 nM.

Take `CC(C)C(=O)O[C@H]1[C@H](c2ccc3c(N)ncnn23)O[C@](C#N)(COP(=O)(N[C@@H](C)C(=O)OCc2ccccc2)Oc2ccccc2)[C@H]1OC(=O)C(C)C` (stereo partly drawn) [Example 236, (2R,3S,4S,5S)-5-(4-aminopyrrolo[2,1-f][1,2,4]triazin-7-yl)-2-((((((S)-1-(benzyloxy)-1-oxopropan-2-yl)amino)(phenoxy)phosphoryl)oxy)methyl)-2-cyanotetrahydrofuran-3,4-diyl bis(2-methylpropanoate)]: the values for the EC50 in assay [1] (setting [4]), in assay [2] (setting [5]) and in assay [3] (setting [6]) were 49 nM, 24 nM and 136 nM, respectively.

For `CC(C)C(=O)O[C@H]1[C@H](c2ccc3c(N)ncnn23)O[C@](C#N)(COP(=O)(N[C@@H](C)C(=O)OCCCN2CCOCC2)Oc2ccccc2)[C@H]1OC(=O)C(C)C` (stereo partly drawn) [Example 237, (2R,3S,4S,5S)-5-(4-aminopyrrolo[2,1-f][1,2,4]triazin-7-yl)-2-cyano-2-((((((S)-1-(3-morpholinopropoxy)-1-oxopropan-2-yl)amino)(phenoxy)phosphoryl)oxy)methyl) tetrahydrofuran-3,4-diyl bis(2-methylpropanoate)], the EC50 in assay [1] (setting [4]) was determined as 106 nM; in assay [2] (setting [5]), 43 nM; in assay [3] (setting [6]) it was 478 nM.

Turning to `CC(C)C(=O)O[C@H]1[C@H](c2ccc3c(N)ncnn23)O[C@](C#N)(COP(=O)(N[C@@H](C)C(=O)OCC2CC2)Oc2ccccc2)[C@H]1OC(=O)C(C)C` (stereo partly drawn) [Example 238, (2R,3S,4S,5S)-5-(4-aminopyrrolo[2,1-f][1,2,4]triazin-7-yl)-2-cyano-2-((((((S)-1-(cyclopropylmethoxy)-1-oxopropan-2-yl)amino)(phenoxy)phosphoryl)oxy)methyl) tetrahydrofuran-3,4-diyl bis(2-methylpropanoate)], the EC50 worked out at 27 nM in assay [1] (Table 3, HEp-2 cells, RSV A2, 4 days); 28 nM in assay [2] (Table 3, NHBE cells, RSV A2, 4 days); 99 nM in assay [3] (Table 3, H1-HeLa cells, 96 h).

`CCC(CC)COC(=O)[C@H](C)NP(=O)(O)OC[C@@]1(C#N)O[C@@H](c2ccc3c(N)ncnn23)[C@H](OC(=O)C(C)C)[C@@H]1OC(=O)C(C)C` [Example 239, ((2R,3S,4S,5S)-5-(4-aminopyrrolo[2,1-f][1,2,4]triazin-7-yl)-2-cyano-3,4-bis(isobutyryloxy)tetrahydrofuran-2-yl)methyl ((S)-1-(2-ethylbutoxy)-1-oxopropan-2-yl)phosphoramidate]: the EC50 in assay [1] (setting [4]) is > 9830 nM; in assay [2] (setting [5]) it was 2260 nM; in assay [3] (setting [6]), > 50000 nM.
